Results reported in ChEMBL document CHEMBL1144002, “N6-substituted C5'-modified adenosines as A1 adenosine receptor agonists” (Bioorg Med Chem, 2008).

Assays:
[1] = system: Adenosine receptor A1 (Mesocricetus auratus); experiment: Ratio of Ki to IC50 for adenosine A1 receptor
[2] = biological target: Adenosine receptor A1 (Mesocricetus auratus); experiment: Displacement of [3H]CPX from adenosine A1 receptor in DDT1MF-2 cells
[3] = system: Adenosine receptor A1 (Mesocricetus auratus); experiment: Intrinsic activity at adenosine A1 receptor assessed as maximal inhibition of isoproterenol-stimulated cAMP accumulation in DDT1MF-2 cells relative to CPA
[4] = biological target: Adenosine receptor A1 (Mesocricetus auratus); experiment: Agonist activity at adenosine A1 receptor assessed as inhibition of isoproterenol-stimulated cAMP accumulation in DDT1MF-2 cells

SMILES	Ratio [1]	Ki [2]	Intrinsic activity [3]	IC50 [4]
CCCNC[C@H]1O[C@@H](n2cnc3c(N[C@H]4C[C@H]5CC[C@H]4C5)ncnc32)[C@H](O)[C@@H]1O	1.3	7200 nM	0.91	4950 nM
CCSC[C@H]1O[C@@H](n2cnc3c(NC4CCCC4)ncnc32)[C@H](O)[C@@H]1O		173 nM	1.02	21 nM
CNC(=O)O[C@H]1O[C@@H](n2cnc3c(N[C@H]4C[C@@H]5C[C@@H]4C4SC45)ncnc32)[C@H](O)[C@@H]1O (stereo partly drawn)	1.3	590 nM	1.03	410 nM
C[Se]C[C@H]1O[C@@H](n2cnc3c(N[C@H]4C[C@@H]5C[C@@H]4C4SC45)ncnc32)[C@H](O)[C@@H]1O (stereo partly drawn)	1.3	30 nM	0.96	12 nM
CCNC(=O)[C@H]1O[C@@H](n2cnc3c(N[C@H]4C[C@@H]5C[C@@H]4C4SC45)ncnc32)[C@H](O)[C@@H]1O (stereo partly drawn)	1.3	0.9 nM	0.98	0.12 nM

Other lines, results leading:

Ratio [1]	Ki [2]	Intrinsic activity [3]	IC50 [4]	SMILES
1.3	17 nM	0.97	7 nM	O[C@@H]1[C@H](O)[C@@H](CF)O[C@H]1n1cnc2c(N[C@H]3C[C@H]4CC[C@H]3C4)ncnc21
1.3	3930 nM	0.92	351 nM	NC[C@H]1O[C@@H](n2cnc3c(N[C@H]4C[C@H]5CC[C@H]4C5)ncnc32)[C@H](O)[C@@H]1O
1.3	122 nM	1.04	28 nM	CCSC[C@H]1O[C@@H](n2cnc3c(N[C@H]4C[C@H]5CC[C@H]4C5)ncnc32)[C@H](O)[C@@H]1O
1.3	> 10000 nM	0.83	867 nM	CNC[C@H]1O[C@@H](n2cnc3c(N[C@H]4C[C@H]5CC[C@H]4C5)ncnc32)[C@H](O)[C@@H]1O
1.3	283 nM	1	224 nM	O[C@@H]1[C@H](O)[C@@H](CS)O[C@H]1n1cnc2c(N[C@H]3C[C@H]4CC[C@H]3C4)ncnc21
1.3	5860 nM	0.97	605 nM	CC(=O)NC[C@H]1O[C@@H](n2cnc3c(N[C@H]4C[C@H]5CC[C@H]4C5)ncnc32)[C@H](O)[C@@H]1O
